# Experimental data taken from patent US20230026696A1, “TRPV4 RECEPTOR LIGANDS” (UNIVERSITY OF UTAH RESEARCH FOUNDATION, priority 2019, published 2023).
# pIC50: −log10 of the molar value. Structures can show the parent of a compound that is named as a salt.
# Target: T1, human TRPV4 (Homo sapiens, UniProt Q9HBA0)
# T1 construct: expressed in transfected cells
# Assay: Fluorometric cell-based Ca2+ flux assay, HEK-293 cells stably overexpressing human TRPV4
# Details: HEK-293 stably overexpressing human TRPV4; agonist GSK1016790A 30 nM
# Procedure: Fluorometric cell-based Ca^2+ flux assays were performed to assess TRPV4 antagonist activity and determine potency (IC50 values) in human embryonic kidney-293 cells (HEK-293) that stably overexpress human TRPV4. The assays were performed according to methods described in: Deering-Rice, C. E., Johansen, M. E., Roberts, J. K., Thomas, K. C., Romero, E. G., Lee, J., Yost, G. S., Veranth, J. M., and Reilly, C. A. (2012), Mol. Pharmacol. 81(3), 411-419; Shapiro, D., Deering-Rice, C. E., Romero, E. G., Hughen, R. W., Light, A. R., Veranth, J. M., and Reilly, C. A. (2013), Chem Res. Toxicol., 26, 750-758; and Deering-Rice, C. E., Mitchell, V. K., Romero, E. G., Abdel Aziz, M. H., and Reilly, C. A. (2014), Pharmacol. Res. & Perspectives. 2(5), 1-10.
# The HEK-293 cells stably overexpressing human TRPV4 were grown to confluence in 2% (w/v) gelatin-coated 96-well plates in DMEM:F12 media supplemented with 5% fetal bovine serum, 1× penicillin/streptomycin (Invitrogen) and Geneticin (300 μg/mL).
# The HEK-293 cells were prepared for assay by replacing the growth media with a 1:1 solution of LHC-9 and Fluo 4-Direct (Invitrogen) reagent containing Fluo 4-AM, pluronic F-127, probenecid, and a proprietary quencher dye. The cells were then incubated at 37° C. for 1 h in a cell culture incubator. The cells were subsequently washed by replacing the loading solution with LHC-9 containing 1 mM water-soluble probenecid (Invitrogen), 750 μM Trypan Red (ATT Bioquest), and a test compound (at various concentrations). The cells were incubated for an additional 30 minutes at 37° C. to allow for Fluo 4-AM cleavage and activation, as well as equilibration to both the test compounds and Fluo 4.
# An agonist treatment solution (90 nM GSK1016790A, a potent activator of TRPV4) was prepared in LHC9 at 3× concentration and 25 μL was added to 50 μL of media on the cells in 96 well plates, providing a final concentration of 30 nM. Changes in cellular fluorescence were monitored with a BMG Labtech NOVOStar fluorescence plate reader for 1 minute at 37° C. Data were quantified as the maximum rate of change in fluorescence intensity (max ΔF/s), corrected for media only treatment (negative control), and represented as the percentage of response relative to the no antagonist control. A minimum of three replicates were used for each treatment condition, with a minimum of 8 concentrations to derive the IC50 values reported for each antagonist. The IC50 values for each antagonist, which are shown in Table 4 below, were calculated according to methods described in the assays were performed according to methods described in: Deering-Rice, C. E., Johansen, M. E., Roberts, J. K., Thomas, K. C., Romero, E. G., Lee, J., Yost, G. S., Veranth, J. M., and Reilly, C. A. (2012), Mol. Pharmacol. 81(3), 411-419; Shapiro, D., Deering-Rice, C. E., Romero, E. G., Hughen, R. W., Light, A. R., Veranth, J. M., and Reilly, C. A. (2013), Chem Res. Toxicol., 26, 750-758; and Deering-Rice, C. E., Mitchell, V. K., Romero, E. G., Abdel Aziz, M. H., and Reilly, C. A. (2014), Pharmacol. Res. & Perspectives. 2(5), 1-10.
# T1 sequence (Q9HBA0 whole entry): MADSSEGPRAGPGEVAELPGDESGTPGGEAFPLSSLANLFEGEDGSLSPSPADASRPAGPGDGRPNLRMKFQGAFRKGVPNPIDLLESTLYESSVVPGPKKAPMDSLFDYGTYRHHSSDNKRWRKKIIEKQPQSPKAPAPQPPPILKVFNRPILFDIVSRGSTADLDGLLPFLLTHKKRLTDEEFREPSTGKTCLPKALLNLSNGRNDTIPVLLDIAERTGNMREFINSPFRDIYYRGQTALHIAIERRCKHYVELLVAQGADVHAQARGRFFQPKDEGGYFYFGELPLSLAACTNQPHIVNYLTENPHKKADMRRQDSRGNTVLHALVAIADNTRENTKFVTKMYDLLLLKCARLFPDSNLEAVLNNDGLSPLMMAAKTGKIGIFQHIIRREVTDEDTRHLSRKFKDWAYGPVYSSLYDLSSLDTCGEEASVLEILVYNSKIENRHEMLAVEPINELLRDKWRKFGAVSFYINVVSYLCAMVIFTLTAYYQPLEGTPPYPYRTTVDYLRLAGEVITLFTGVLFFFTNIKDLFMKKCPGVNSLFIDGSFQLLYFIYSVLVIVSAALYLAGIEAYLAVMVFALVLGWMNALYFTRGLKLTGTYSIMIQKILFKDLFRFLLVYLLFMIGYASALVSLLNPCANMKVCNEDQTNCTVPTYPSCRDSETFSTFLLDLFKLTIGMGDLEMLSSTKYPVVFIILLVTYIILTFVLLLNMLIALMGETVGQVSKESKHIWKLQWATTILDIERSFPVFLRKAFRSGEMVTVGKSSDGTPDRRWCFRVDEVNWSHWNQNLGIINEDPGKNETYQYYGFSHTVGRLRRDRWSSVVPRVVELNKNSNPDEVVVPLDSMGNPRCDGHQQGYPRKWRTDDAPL
row,pIC50,SMILES
1,< 5.89,"N#Cc1ccc(OCC2(CO)CN(S(=O)(=O)c3c(Cl)cccc3Cl)C2)cc1F [Compound 75, 4-((1-((2,6-Dichlorophenyl)sulfonyl)-3-(hydroxymethyl)azetidin-3-yl)methoxy)-2-fluorobenzonitrile]"
2,5.52,"Cc1ccc(S(=O)(=O)N2CC(CO)(COc3ccc(C#N)c(F)c3)C2)cc1 [Compound 73, 2-Fluoro-4-((3-(hydroxymethyl)-1-tosylazetidin-3-yl)methoxy)benzonitrile]"
3,9.52,"N#Cc1ccc(OCC2(CN[C@H]3CC[C@H](O)CC3)CN(S(=O)(=O)c3ccc(Cl)cc3Cl)C2)cc1F [Compound 41, 4-((1-((2,4-Dichlorophenyl)sulfonyl)-3-((((trans)-4-hydroxycyclohexyl)amino)methyl)azetidin-3-yl)methoxy)-2-fluorobenzonitrile hydrochloride]"
4,9.00,"CCNCC1(COc2ccc(C#N)c(F)c2)CN(S(=O)(=O)c2ccc(Cl)cc2Cl)C1 [Compound 25, 4-((1-((2,4-Dichlorophenyl)sulfonyl)-3-((ethylamino)methyl)azetidin-3-yl)methoxy)-2-fluorobenzonitrile hydrochloride]"
5,9.54,"N#Cc1ccc(OCC2(CN[C@H]3CC[C@H](O)CC3)CN(S(=O)(=O)c3ccccc3C#N)C2)cc1F [Compound 112, 4-((1-((2-Cyanophenyl)sulfonyl)-3-(((trans-4-hydroxycyclohexyl)amino)methyl)azetidin-3-yl)methoxy)-2-fluorobenzonitrile]"
6,6.46,"N#Cc1ccc(OCC2(CNC(=O)CO)CN(S(=O)(=O)c3ccc(Cl)cc3Cl)C2)cc1F [Compound 47, N-((3-((4-Cyano-3-fluorophenoxy)methyl)-1-((2,4-dichlorophenyl)sulfonyl)azetidin-3-yl)methyl)-2-hydroxyacetamide]"
7,9.39,"N#Cc1ccc(OCC2(CNC3CCOCC3)CN(S(=O)(=O)c3ccccc3C#N)C2)cc1F [Compound 116, 4-((1-((2-Cyanophenyl)sulfonyl)-3-(((tetrahydro-2H-pyran-4-yl)amino)methyl)azetidin-3-yl)methoxy)-2-fluorobenzonitrile]"
8,9.52,"C[C@@H](O)CNCC1(COc2ccc(C#N)c(F)c2)CN(S(=O)(=O)c2ccc(Cl)cc2Cl)C1 [Compound 30, (R)-4-((1-((2,4-Dichlorophenyl)sulfonyl)-3-(((2-hydroxypropyl)amino)methyl)azetidin-3-yl)methoxy)-2-fluorobenzonitrile hydrochloride]"
9,8.89,"N#Cc1ccc(OCC2(CN[C@H]3CC[C@@H](O)CC3)CN(S(=O)(=O)c3ccc(Cl)cc3Cl)C2)cc1F [Compound 39, 4-((1-((2,4-Dichlorophenyl)sulfonyl)-3-((((cis)-4-hydroxycyclohexyl)amino)methyl)azetidin-3-yl)methoxy)-2-fluorobenzonitrile hydrochloride]"
10,6.84,"COc1ccc(S(=O)(=O)N2CC(CO)(COc3ccc(C#N)c(F)c3)C2)c(C#N)c1 [Compound 106, 4-((1-((2-Cyano-4-methoxyphenyl)sulfonyl)-3-(hydroxymethyl)azetidin-3-yl)methoxy)-2-fluorobenzonitrile]"
11,< 7.19,"COc1ccc(S(=O)(=O)N2CC(CO)(COc3ccc(C#N)c(F)c3)C2)c(Cl)c1 [Compound 83, 4-((1-((2-chloro-4-methoxyphenyl)sulfonyl)-3-(hydroxymethyl)azetidin-3-yl)methoxy)-2-fluorobenzonitrile]"
12,6.30 to 7.00,"N#Cc1ccc(OCC2(CO)CN(S(=O)(=O)c3ccc(Cl)cc3F)C2)cc1F [Compound 78, 4-((1-((4-Chloro-2-fluorophenyl)sulfonyl)-3-(hydroxymethyl)azetidin-3-yl)methoxy)-2-fluorobenzonitrile]"
13,7.28,"N#Cc1ccc(OCC2(CNC(=O)CN)CN(S(=O)(=O)c3ccc(Cl)cc3Cl)C2)cc1F [Compound 46, 2-Amino-N-((3-((4-cyano-3-fluorophenoxy)methyl)-1-((2,4-dichlorophenyl)sulfonyl)azetidin-3-yl)methyl)acetamide]"
14,5.30,"N#Cc1ccc(OCC2(CO)CN(S(=O)(=O)c3cccc(C(F)(F)F)c3)C2)cc1F [Compound 70, 2-Fluoro-4-((3-(hydroxymethyl)-1-((3-(trifluoromethyl)phenyl)sulfonyl)azetidin-3-yl)methoxy)benzonitrile]"
15,5.91,"CN(C)C1(COc2ccc(C#N)c(F)c2)CN(S(=O)(=O)c2ccc(Cl)cc2Cl)C1 [Compound 54, 4-((1-((2,4-Dichlorophenyl)sulfonyl)-3-(dimethylamino)azetidin-3-yl)methoxy)-2-fluorobenzonitrile]"
16,9.30,"N#Cc1ccc(OCC2(CNCCCO)CN(S(=O)(=O)c3ccc(Cl)cc3Cl)C2)cc1F [Compound 19, 4-((1-((2,4-Dichlorophenyl)sulfonyl)-3-(((3-hydroxypropyl)amino)methyl)azetidin-3-yl)methoxy)-2-fluorobenzonitrile hydrochloride]"
17,8.80,"C[C@H](O)CNCC1(COc2ccc(C#N)c(F)c2)CN(S(=O)(=O)c2ccccc2C#N)C1 [Compound 117, (S)-4-((1-((2-Cyanophenyl)sulfonyl)-3-(((2-hydroxypropyl)amino)methyl)azetidin-3-yl)methoxy)-2-fluorobenzonitrile]"
18,< 7.57,"Cc1ccc(S(=O)(=O)N2CC(CO)(COc3ccc(C#N)c(F)c3)C2)c(Cl)c1 [Compound 82, 4-((1-((2-Chloro-4-methylphenyl)sulfonyl)-3-(hydroxymethyl)azetidin-3-yl)methoxy)-2-fluorobenzonitrile]"
19,8.10,"N#Cc1ccc(OCC2(CNC3COC3)CN(S(=O)(=O)c3ccc(Cl)cc3Cl)C2)cc1F [Compound 26, 4-((1-((2,4-Dichlorophenyl)sulfonyl)-3-((oxetan-3-ylamino)methyl)azetidin-3-yl)methoxy)-2-fluorobenzonitrile]"
20,8.48,"CCOC(=O)CCNCC1(COc2ccc(C#N)c(F)c2)CN(S(=O)(=O)c2ccc(Cl)cc2Cl)C1 [Compound 37, Ethyl 3-(((3-((4-Cyano-3-fluorophenoxy)methyl)-1-((2,4-dichlorophenyl)sulfonyl)azetidin-3-yl)methyl)amino)propanoate hydrochloride]"
21,6.03,"COc1cc(C#N)c(F)cc1OCC1(CO)CN(S(=O)(=O)c2ccccc2C#N)C1 [Compound 109, 4-((1-((2-Cyanophenyl)sulfonyl)-3-(hydroxymethyl)azetidin-3-yl)methoxy)-2-fluoro-5-methoxybenzonitrile]"
22,7.28,"N#Cc1ccc(OCC2(NS(=O)(=O)CCN)CN(S(=O)(=O)c3ccc(Cl)cc3Cl)C2)cc1F [Compound 57, 2-Amino-N-(3-((4-cyano-3-fluorophenoxy)methyl)-1-((2,4-dichlorophenyl)sulfonyl)azetidin-3-yl)ethane-1-sulfonamide hydrochloride]"
23,~5.30,"Cc1ccc(OCC2(CO)CN(S(=O)(=O)c3ccc(Cl)cc3Cl)C2)cc1 [Compound 92, (1-((2,4-Dichlorophenyl)sulfonyl)-3-((p-tolyloxy)methyl)azetidin-3-yl)methanol]"
24,7.53,"N#Cc1ccc(OCC2(CO)CN(S(=O)(=O)c3ccc(F)cc3C#N)C2)cc1F [Compound 104, 4-((1-((2-Cyano-4-fluorophenyl)sulfonyl)-3-(hydroxymethyl)azetidin-3-yl)methoxy)-2-fluorobenzonitrile]"
